In test [1] the target is T1, human adrenergic-α2A receptor (Homo sapiens, UniProt P08913).
T1 construct: expressed in transfected cells; host or cells: CHO cells, stably transfected; membrane preparation
T1 sequence (P08913 1-465): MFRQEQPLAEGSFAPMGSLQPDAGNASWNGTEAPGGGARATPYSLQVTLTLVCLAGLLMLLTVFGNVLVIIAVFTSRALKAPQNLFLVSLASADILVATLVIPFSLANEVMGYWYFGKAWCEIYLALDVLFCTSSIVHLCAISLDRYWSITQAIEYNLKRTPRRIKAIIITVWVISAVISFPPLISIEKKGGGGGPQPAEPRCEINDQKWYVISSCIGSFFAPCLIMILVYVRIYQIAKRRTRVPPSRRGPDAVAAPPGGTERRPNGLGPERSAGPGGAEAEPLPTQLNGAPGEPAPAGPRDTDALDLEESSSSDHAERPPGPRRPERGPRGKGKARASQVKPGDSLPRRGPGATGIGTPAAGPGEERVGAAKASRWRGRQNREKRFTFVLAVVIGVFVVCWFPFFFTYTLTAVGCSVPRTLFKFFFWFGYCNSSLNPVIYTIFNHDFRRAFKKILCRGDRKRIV
The experiment in a line: Radioligand binding experiment for hα2A-adrenergic receptor ([3H]raulwolscine). Particulars: [3H]raulwolscine 1 nM, 60 minutes at 25° C.; for IC50: read-out: h-α2A pIC50 (converted). Summed up: (§1)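 CHO membranes expressing human α2A or α2C receptors were incubated with 1 nM [^3H]raulwolscine for 60 min at 25° C in glycylglycine 25 mM, pH 8.0, then filtered. Nonspecific binding was defined with 1 μM oxymetazoline for α2A and 1 μM spiroxatrine for α2C. pIC50 came from sigmoidal competition curves.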

The target of test [2] is T2, human adrenergic-α2C receptor (Homo sapiens, UniProt P18825).
T2 construct: expressed in transfected cells; host or cells: CHO cells, stably transfected; membrane preparation
T2 sequence (P18825 1-462): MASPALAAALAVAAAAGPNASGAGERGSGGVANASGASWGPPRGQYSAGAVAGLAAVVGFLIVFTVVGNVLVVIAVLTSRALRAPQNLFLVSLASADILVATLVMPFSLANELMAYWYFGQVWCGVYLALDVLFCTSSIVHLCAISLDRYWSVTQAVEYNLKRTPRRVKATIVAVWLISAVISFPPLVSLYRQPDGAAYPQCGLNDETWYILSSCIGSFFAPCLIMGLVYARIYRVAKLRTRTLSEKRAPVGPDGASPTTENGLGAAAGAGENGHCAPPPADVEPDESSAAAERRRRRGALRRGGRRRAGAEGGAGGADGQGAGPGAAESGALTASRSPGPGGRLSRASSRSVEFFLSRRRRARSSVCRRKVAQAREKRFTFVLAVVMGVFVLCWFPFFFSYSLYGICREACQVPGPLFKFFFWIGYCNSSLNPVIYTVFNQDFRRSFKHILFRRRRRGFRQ
The experiment in a line: Radioligand binding experiment for hα2C-adrenoceptor ([3H]raulwolscine). Particulars: [3H]raulwolscine 1 nM, 60 minutes at 25° C.; for IC50: read-out: h-α2C pIC50 (converted). Summed up: as §1

Test [3] has as its target T3, 5HT-transporter (Homo sapiens, UniProt P31645).
T3 construct: Human platelet membranes (Oceanix Biosciences Corporation, Hanover, Md., USA) were thawed; tissue Oceanix Biosciences Corporation, Hanover, Md., USA; host or cells: human platelet membranes
The experiment in a line: Binding experiment for the 5HT-transporter ([3H]paroxetine, human platelet membranes). The settings on record: [3H]paroxetine 0.5 nM, 60 min at 25° C.; for IC50: read-out: h-5HTT pIC50 (converted). A digest of the protocol: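 Competition binding of [3H]paroxetine to human platelet membranes in Tris-HCl 50 mM with 120 mM NaCl and 5 mM KCl; bound radioligand separated by GF/B filtration and counted.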

T3 sequence (P31645 whole entry): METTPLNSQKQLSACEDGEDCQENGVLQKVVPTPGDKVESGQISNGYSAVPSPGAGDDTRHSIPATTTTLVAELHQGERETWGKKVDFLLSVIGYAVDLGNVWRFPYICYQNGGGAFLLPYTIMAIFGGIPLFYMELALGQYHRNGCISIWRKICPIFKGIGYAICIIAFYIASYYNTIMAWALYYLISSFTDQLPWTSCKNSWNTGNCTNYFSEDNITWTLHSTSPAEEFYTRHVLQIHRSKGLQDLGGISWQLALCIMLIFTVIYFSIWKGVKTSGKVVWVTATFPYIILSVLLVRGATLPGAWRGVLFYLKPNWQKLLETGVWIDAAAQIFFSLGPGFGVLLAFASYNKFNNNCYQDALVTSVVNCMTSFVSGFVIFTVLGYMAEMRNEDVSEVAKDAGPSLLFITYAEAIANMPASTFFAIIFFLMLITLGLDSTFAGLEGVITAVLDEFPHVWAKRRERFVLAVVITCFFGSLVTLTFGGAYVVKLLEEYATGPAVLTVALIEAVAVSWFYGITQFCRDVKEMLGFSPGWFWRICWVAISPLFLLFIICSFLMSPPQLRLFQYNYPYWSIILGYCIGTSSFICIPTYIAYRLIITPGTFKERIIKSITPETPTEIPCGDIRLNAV

As for `O=c1[nH]ncn1CCCn1ccnc(NC2CCN(Cc3ccc4ccccc4c3)CC2)c1=O` [6-11], the figures for the IC50 in test [1], in test [2] and in test [3] were 794 nM, 100 nM and 126 nM, respectively.
Take `O=c1c(NC2CCN(Cc3ccc4ccccc4c3)CC2)nccn1-c1ccc2c(c1)CN(CCO)CC2` [6-12]: the IC50 in test [1] was 31.6 nM; in test [2] it was 5.01 nM; in test [3], 39.8 nM.
As for `CC(=O)N1CCc2ccc(-n3ccnc(NC4CCN(Cc5ccc6ccccc6c5)CC4)c3=O)cc2C1` [6-13], the figures for the IC50 in test [1], in test [2] and in test [3] were 126 nM, 10 nM and 25.1 nM, respectively.
For `Cn1ccnc1CN1CCc2ccc(-n3ccnc(NC4CCN(Cc5ccc6ccccc6c5)CC4)c3=O)cc2C1` [6-15], the results for the IC50 in test [1], in test [2] and in test [3] were 100 nM, 3.98 nM and 10 nM, respectively.
For `O=c1c(NC2CCN(Cc3ccc4ccccc4c3)CC2)nccn1-c1ccccn1` [6-16] the same measures were 63.1 nM, 25.1 nM and 158 nM.
As for `O=c1[nH]c(-c2cccc(Br)c2)c(Cl)nc1NC1CCN(Cc2ccc3ccccc3c2)CC1` [7-01], the results for the IC50 in test [1], in test [2] and in test [3] were 1580 nM, 794 nM and 501 nM, respectively.
Take `O=c1[nH]c(-c2cccc(CNCCF)c2)c(Cl)nc1NC1CCN(Cc2ccc3ccccc3c2)CC1` [7-03]: the figures for the IC50 in test [1], in test [2] and in test [3] were 794 nM, 200 nM and 794 nM, respectively.
With `O=c1[nH]c(-c2cccc(CNCC3CCCO3)c2)c(Cl)nc1NC1CCN(Cc2ccc3ccccc3c2)CC1` (stereo not drawn) [7-04], the IC50 is 631 nM in test [1], 126 nM in test [2] and 398 nM in test [3].
For the compound `O=c1[nH]c(-c2cccc(CN3CCCCC3)c2)c(Cl)nc1NC1CCN(Cc2ccc3ccccc3c2)CC1` [7-05], the IC50 in test [1] was 794 nM; in test [2] it was 126 nM; in test [3], 631 nM.
Turning to `O=c1[nH]c(-c2cccc(CN3CCC(F)CC3)c2)c(Cl)nc1NC1CCN(Cc2ccc3ccccc3c2)CC1` [7-06], the IC50 in test [1] is 1260 nM; in test [2] it was 251 nM; in test [3] it was 1000 nM.
For `O=c1[nH]c(-c2cccc(CN3CCOCC3)c2)c(Cl)nc1NC1CCN(Cc2ccc3ccccc3c2)CC1` [7-08], in that order: 1580 nM, 501 nM and 1260 nM.
As for `CN1CCN(Cc2cccc(-c3[nH]c(=O)c(NC4CCN(Cc5ccc6ccccc6c5)CC4)nc3Cl)c2)CC1` [7-10], the IC50 in test [1] is 631 nM; in test [2] it was 100 nM; in test [3], 200 nM.
For `COc1ccc(Cn2c(-c3ccc(CO)cc3)c(Cl)nc(NC3CCN(Cc4ccc5ccccc5c4)CC3)c2=O)cc1` [8-03], the values for the IC50 in test [1], in test [2] and in test [3] were 200 nM, 251 nM and 126 nM, respectively.
`COC(=O)c1ccc(-c2c(Cl)nc(NC3CCN(Cc4ccc5ccccc5c4)CC3)c(=O)n2Cc2ccc(OC)cc2)cc1` [8-04]: the IC50 in test [1] is 1260 nM; in test [2], 1260 nM; in test [3] it was 794 nM.
With `COc1ccc(Cn2c(-c3cccc(CNCC4CCCO4)c3)c(Cl)nc(NC3CCN(Cc4ccc5ccccc5c4)CC3)c2=O)cc1` (stereo not drawn) [8-07], the IC50 was 501 nM in test [1], 158 nM in test [2] and 100 nM in test [3].
As for `COc1ccc(Cn2c(-c3ccc(CNCC4CCCO4)cc3)c(Cl)nc(NC3CCN(Cc4ccc5ccccc5c4)CC3)c2=O)cc1` (stereo not drawn) [8-08], the IC50 was 316 nM in test [1], 200 nM in test [2] and 63.1 nM in test [3].
For `COc1ccc(Cn2c(-c3cccc(CN4CCCCC4)c3)c(Cl)nc(NC3CCN(Cc4ccc5ccccc5c4)CC3)c2=O)cc1` [8-09], the IC50 was 100 nM in test [1], 50.1 nM in test [2] and 50.1 nM in test [3].
For the compound `COc1ccc(Cn2c(-c3cccc(CN4CCC(O)CC4)c3)c(Cl)nc(NC3CCN(Cc4ccc5ccccc5c4)CC3)c2=O)cc1` [8-10], the IC50 in test [1] was 158 nM; in test [2], 79.4 nM; in test [3] it was 31.6 nM.
With `COc1ccc(Cn2c(-c3ccc(CN4CCC(O)CC4)cc3)c(Cl)nc(NC3CCN(Cc4ccc5ccccc5c4)CC3)c2=O)cc1` [8-11], the IC50 is 126 nM in test [1], 39.8 nM in test [2] and 31.6 nM in test [3].
In the case of `COc1ccc(Cn2c(-c3cccc(CN4CCC(F)CC4)c3)c(Cl)nc(NC3CCN(Cc4ccc5ccccc5c4)CC3)c2=O)cc1` [8-12], the IC50 in test [1] is 100 nM; in test [2] it was 79.4 nM; in test [3] it was 126 nM.
As for `COc1ccc(Cn2c(-c3cccc(N4CCC(N5CCCC5)CC4)c3)c(Cl)nc(NC3CCN(Cc4ccc5ccccc5c4)CC3)c2=O)cc1` [8-13], the results for the IC50 in test [1], in test [2] and in test [3] were 501 nM, 126 nM and 126 nM, respectively.
Regarding `COc1ccc(Cn2c(-c3cccc(CN4CCN(C)CC4)c3)c(Cl)nc(NC3CCN(Cc4ccc5ccccc5c4)CC3)c2=O)cc1` [8-14], the IC50 is 501 nM in test [1], 126 nM in test [2] and 50.1 nM in test [3].
For the compound `O=C1c2ccccc2C(=O)N1CCCn1ccnc(N2CCN(Cc3ccc4ccccc4c3)CC2)c1=O` [9-01], the IC50 in test [1] was 631 nM; in test [2], 79.4 nM; in test [3], 31.6 nM.
On to `O=C(O)C(F)(F)F.O=C1c2ccccc2C(=O)N1CCCn1ccnc(NCCN2CCN(Cc3ccc4ccccc4c3)CC2)c1=O` [9-02], for which the “h-α2A pIC50” value in test [1] is listed as 6.6. Further, in test [2], the “h-α2C pIC50” value is 7.5. Also, in test [3], the “h-5HTT pIC50” value was found to be 7.3.
`O=C(CCN(c1nccn(CCC(=O)c2ccccc2)c1=O)C1CCN(Cc2ccc3ccccc3c2)CC1)c1ccccc1` [9-03]: the IC50 was 251 nM in test [1], 39.8 nM in test [2] and 39.8 nM in test [3].
On to `O=C(CCn1ccnc(NC2CCN(Cc3ccc4ncccc4c3)CC2)c1=O)c1ccccc1` [9-05], for which the IC50 in test [1] was 1580 nM; in test [2], 794 nM; in test [3], 25.1 nM.
For `O=c1c(NC2CCN(Cc3ccc4ncccc4c3)CC2)nccn1CCCOCc1ccccc1` [9-06], in that order: 1260 nM, 316 nM and 39.8 nM.
With `O=C1c2ccccc2C(=O)N1CCCn1ccnc(NC2CCN(Cc3ccc4ncccc4c3)CC2)c1=O` [9-07], the figures for the IC50 in test [1], in test [2] and in test [3] were 1580 nM, 63.1 nM and 50.1 nM, respectively.
As to `O=C(CCN(c1nccn(CCC(=O)c2ccccc2)c1=O)C1CCN(Cc2ccc3ccccc3n2)CC1)c1ccccc1` [9-09], the IC50 in test [1] is 316 nM; in test [2], 50.1 nM; in test [3], 126 nM.
Take `O=c1c(NC2CCN(Cc3ccc4ncccc4c3)CC2)nccn1CCCOc1ccccc1` [9-12]: the IC50 in test [1] was 501 nM; in test [2] it was 63.1 nM; in test [3], 794 nM.
`O=c1[nH]ccnc1NC1CCN(Cc2ccc3ncccc3c2)CC1` [9-13]: the IC50 in test [1] was 3160 nM; in test [2] it was 398 nM; in test [3], above 10000 nM.
For `CCOC(=O)CCCCn1ccnc(NC2CCN(Cc3ccc4ccccc4n3)CC2)c1=O` [9-14] the same measures were 631 nM, 126 nM and 3980 nM.
For `O=c1c(NC2CCN(Cc3ccc4ccccc4n3)CC2)nccn1CCOc1ccccc1` [9-15], in that order: 631 nM, 158 nM and 631 nM.
